Here are results for three compounds from patent US6835371B1 (priority 1997, dated 2004).

Test [1] has as its target T1, human dopamine transporter (hDAT) (Homo sapiens, UniProt Q01959). As to the kind of experiment: cell-based.
Test [2] addresses T1, human dopamine transporter (hDAT). In words: biochemical. It is filed as binding.
Test [3] concerns the target T2, human norepinephrine transporter (hNET) (Homo sapiens, UniProt P23975). As to the kind of experiment: biochemical. It is filed as binding.
Test [4] deals with male Swiss-Webster mice. As to the kind of experiment: animal or person. In kind it is in vivo. To be noted: for Doses with significant differences against the vehicle group (p<0.05) / Maximal effect/cocaine maximal effect ratio (ME/CME) / Maximum effect, horizontal activity / Dose at estimated maximum effect: mouse, in vivo; for Doses with significant differences against the vehicle group (p<0.05) / ED50 / Dose at estimated maximum effect: ip; for ED50: Mus musculus, read-out: ED50 (dose producing ½ maximal stimulant activity).

In test [5] the target is T2, human norepinephrine transporter (hNET). In words: cell-based.
Test [6] has as its system male Swiss-Webster mice. In words: Cocaine interaction study (locomotor activity). Conditions: for AD50 (dose attenuating cocaine-induced stimulation by 50%): IP, 30-min period; for AD50 (dose attenuating cocaine-induced stimulation by 50%) / Doses with significant differences against the cocaine group (p<0.05): 20 mg/kg cocaine IP; for Doses with significant differences against the cocaine group (p<0.05): planned comparisons on log10 horizontal activity counts. It is filed as in vivo.

Values joined by “and” are separate entries in the source; they are usually repeats but may differ in a detail not shown here. Equal entries are not always repeated. Where two headings read alike, the source gives them in different places.

T2 sequence (P23975 whole entry): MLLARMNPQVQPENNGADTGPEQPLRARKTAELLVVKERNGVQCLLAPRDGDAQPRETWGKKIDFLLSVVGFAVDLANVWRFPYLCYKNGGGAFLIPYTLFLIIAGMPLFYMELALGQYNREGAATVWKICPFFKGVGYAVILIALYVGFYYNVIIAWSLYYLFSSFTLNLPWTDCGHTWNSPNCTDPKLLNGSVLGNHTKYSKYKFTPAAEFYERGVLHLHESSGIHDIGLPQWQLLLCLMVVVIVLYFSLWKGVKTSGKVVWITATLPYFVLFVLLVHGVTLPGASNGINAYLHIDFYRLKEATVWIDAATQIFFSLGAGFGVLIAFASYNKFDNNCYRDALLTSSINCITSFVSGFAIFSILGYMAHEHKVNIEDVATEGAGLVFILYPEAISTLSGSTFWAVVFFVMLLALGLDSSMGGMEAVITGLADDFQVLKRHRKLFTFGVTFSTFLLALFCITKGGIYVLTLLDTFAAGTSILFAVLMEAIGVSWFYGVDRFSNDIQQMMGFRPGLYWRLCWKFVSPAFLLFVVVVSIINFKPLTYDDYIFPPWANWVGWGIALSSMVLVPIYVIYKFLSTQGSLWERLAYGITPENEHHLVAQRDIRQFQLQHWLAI
T1 sequence (Q01959 whole entry): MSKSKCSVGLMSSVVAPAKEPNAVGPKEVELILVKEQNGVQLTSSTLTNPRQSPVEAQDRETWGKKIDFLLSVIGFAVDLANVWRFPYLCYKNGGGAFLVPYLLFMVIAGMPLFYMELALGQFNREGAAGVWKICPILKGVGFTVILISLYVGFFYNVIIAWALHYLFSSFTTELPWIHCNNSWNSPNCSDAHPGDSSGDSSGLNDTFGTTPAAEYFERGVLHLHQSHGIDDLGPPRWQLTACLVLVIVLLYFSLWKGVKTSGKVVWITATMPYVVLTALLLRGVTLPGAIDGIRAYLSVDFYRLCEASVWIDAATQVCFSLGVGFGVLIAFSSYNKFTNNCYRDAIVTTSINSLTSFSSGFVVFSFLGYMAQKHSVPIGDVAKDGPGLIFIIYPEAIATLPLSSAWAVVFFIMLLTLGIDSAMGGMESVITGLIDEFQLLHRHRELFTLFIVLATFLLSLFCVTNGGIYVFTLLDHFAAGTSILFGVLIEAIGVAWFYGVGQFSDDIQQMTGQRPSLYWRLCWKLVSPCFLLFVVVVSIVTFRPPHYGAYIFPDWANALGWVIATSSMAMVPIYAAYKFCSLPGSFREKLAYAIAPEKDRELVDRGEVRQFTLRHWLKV

As to `Fc1ccc(C(OCCCCN2CCN(c3cccc(C(F)(F)F)c3)CC2)c2ccc(F)cc2)cc1` [Compound 31532], the “Discrimination Ratio DAT Binding/Reuptake” value in test [1] turned out to be 11.7. Further, in test [1], the “Discrimination ratio uptake/binding (DA)” value was found to be 11.7. Further, the values for the half-maximal inhibitory concentration (IC50) in test [1], in test [5] ([3H]NE Uptake IC50) and in test [5] (read-out: [3H]NE Uptake IC50) were 380 nM, 310 nM and 310 nM, respectively. The Ki in test [1] was 380 ± 130 nM; in test [2] ([125I]RTI-55 binding Ki, DAT) it was 32.5 nM; in test [2] (read-out: [125I]RTI-55 binding Ki, DAT), 32.5 nM; in test [3] ([125I]RTI-55 binding Ki, NET), 222 nM; in test [3] (read-out: [125I]RTI-55 binding Ki, NET), 222 nM; in test [5], 310 ± 100 nM. For the same compound, the “Binding discrimination ratio NET/DAT” value in test [2] worked out at 6.8. Moreover, the “Binding discrimination ratio SERT/DAT” value in test [2] is recorded as 6.8. The Hill coefficient in test [2] is −0.87 ± 0.05; in test [3] it was −0.80 ± 0.03. Besides, in the test with male Swiss-Webster mice [4] (IP, 20 min pretreatment, 0-30 min, descending portion 10 to 100 mg/kg), the “ID50 (dose producing ½ maximal depressant activity)” value was 112.95 mg/kg. Further, in the test on male Swiss-Webster mice [4], the “Doses with significant differences against the vehicle group (p<0.05)” value is given as 100 mg/kg. Moreover, the “AD50 (dose attenuating cocaine-induced stimulation by 50%)” value in the test with male Swiss-Webster mice [6] worked out at 18.35 mg/kg. The “Doses with significant differences against the cocaine group (p<0.05)” value with male Swiss-Webster mice [6] amounted to 100 mg/kg.

On to `Fc1ccc(C(OCCCCN2CCN(c3ccccc3F)CC2)c2ccc(F)cc2)cc1` [Compound 31526], for which, in test [1], the “Discrimination Ratio DAT Binding/Reuptake” value is 11.9, the “Discrimination ratio uptake/binding (DA)” value came out at 11.9, the IC50 was determined as 460 nM and the Ki came to 460 ± 140 nM. In test [2], the “Binding discrimination ratio NET/DAT” value is on record as 10.8, the “Binding discrimination ratio SERT/DAT” value amounted to 0.8 and the Hill coefficient is −0.86 ± 0.06. This compound came in with a Ki in test [2] ([125I]RTI-55 binding Ki, DAT) of 38.7 nM. For the same compound, the Hill coefficient in test [3] is given as −0.91 ± 0.09. For the same compound, the Ki in test [3] ([125I]RTI-55 binding Ki, NET) stood at 417 nM. In the test on male Swiss-Webster mice [4], the ED50 was found to be 0.015 mg/kg; the “Maximal effect/cocaine maximal effect ratio (ME/CME)” value was determined as 0.49; the “Maximum effect, horizontal activity” value was determined as 2716.1 counts/10 min; the “Dose at estimated maximum effect” value was 0.64 mg/kg. Also, the “Doses with significant differences against the vehicle group (p<0.05)” value in the test with male Swiss-Webster mice [4] is 1 mg/kg. The affinity in test [5] corresponds to a Ki of 700 ± 240 nM. The compound also gave an IC50 in test [5] ([3H]NE Uptake IC50) of 700 nM. Besides, in test [5] (read-out: [3H]NE Uptake IC50), the IC50 turned out to be 700 nM. The “Attenuation of cocaine-induced locomotor activity” value in the test with male Swiss-Webster mice [6] (0.1-10 mg/kg IP 20 min before 20 mg/kg cocaine IP) is “did not attenuate locomotor activity induced by 20 mg/kg cocaine”.

In the case of `OC1(c2ccc(Br)cc2)CCN(CCCCOC(c2ccc(F)cc2)c2ccc(F)cc2)CC1` [Compound 31530], in test [1], the “Discrimination ratio uptake/binding (DA)” value was found to be 110.5. Besides, the IC50 in test [1] (HEK-hDAT cells, read-out: [3H]Dopamine Uptake IC50) came to 431 nM. Moreover, the Ki in test [1] (Table 2, read-out: Reuptake [3H]DA (Ki ± SD)) came out at 431 ± 88 nM. In test [2], the “Binding discrimination ratio NET/DAT” value is given as 64.1, the “Binding discrimination ratio SERT/DAT” value came out at 9.7 and the Hill coefficient is −0.59 ± 0.06. For the same compound, the Ki in test [2] ([125I]RTI-55 binding Ki, DAT) was 3.9 nM and 10 nM. The same compound returned a Hill coefficient in test [3] of −0.97 ± 0.30. Besides, in the test on male Swiss-Webster mice [4], the ED50 turned out to be 2.42 mg/kg; the “Maximal effect/cocaine maximal effect ratio (ME/CME)” value was 0.38; the “Maximum effect, horizontal activity” value is 2132.6 counts/10 min; the “Dose at estimated maximum effect” value is recorded as 6.00 mg/kg. In test [5] (HEK-hNET cells, read-out: [3H]NE Uptake IC50), the 50% inhibitory concentration (IC50) came out at 1870 nM. In test [5] (Table 2, read-out: Reuptake [3H]NE (Ki ± SD)), the Ki was found to be 1870 ± 670 nM. Further, in the test with male Swiss-Webster mice [6], the “AD50 (dose attenuating cocaine-induced stimulation by 50%)” value was 15.75 mg/kg and the “Doses with significant differences against the cocaine group (p<0.05)” value was 30 mg/kg.

What is called IC50 is the concentration at which inhibition is half-maximal. The term Ki denotes the equilibrium dissociation constant of an inhibitor or competing ligand from its target. What is called Hill coefficient is the slope factor of the fitted curve. What is called ED50 is the midpoint of the dose-response relation.
